{
  "source": "ChEMBL document CHEMBL5523751",
  "about": "“Discovery of Novel Diaryl-Substituted Fused Heterocycles Targeting Katanin and Tubulin with Potent Antitumor and Antimultidrug Resistance Efficacy” (J Med Chem, 2024)",
  "key": {"[1]": {"test_system": "MCF7", "test": "Effect on katanin p60 protein level in katanin knockdown human MCF7 cells measured after 48 to 72 hrs by immunoblot analysis", "format": "functional, cell-based", "conditions": "time 48-72 hrs"}, "[2]": {"test_system": "MCF7", "test": "Antiproliferative activity against katanin knockdown human MCF7 cells assessed as inhibition of cell growth at 0.2 to 25 nM measured after 48 hrs by MTT assay", "format": "functional, cell-based", "conditions": "dose 0.2-25 nM"}, "[3]": {"molecular_target": "Tubulin (Homo sapiens) (UniProt P68371+Q9H4B7+P0DPH7+P68366+Q13509+Q71U36+P04350+Q3ZCM7+P07437+P68363+Q9BQE3+Q6PEY2+Q13885+Q9BVA1+Q9BUF5)", "test": "Inhibition of microtubule assembly in human MCF7 cells assessed as decrease in density at 1 to 10 nM incubated for 24 hrs by immunofluorescence assay", "format": "cell-based", "conditions": "dose 1-10 nM"}, "[4]": {"test_system": "MCF7", "test": "Upregulation of cyclin-B1 expression level in human MCF7 cells at 1 to 10 nM by Western blot analysis", "format": "functional, cell-based", "conditions": "dose 1-10 nM"}, "[5]": {"test_system": "MCF7", "test": "Upregulation of CDK1 expression level in human MCF7 cells at 1 to 10 nM by Western blot analysis", "format": "functional, cell-based", "conditions": "dose 1-10 nM"}, "[6]": {"test_system": "MCF7", "test": "Induction of apoptosis in human MCF7 cells assessed as early apoptotic cells at 20 nM measured after 48 hrs by annexin-FITC and propidium iodide staining based flow cytometry analysis (reference value: 1.20%)", "format": "functional"}, "[7]": {"test_system": "MCF7", "test": "Induction of apoptosis in human MCF7 cells assessed as early apoptotic cells at 40 nM measured after 48 hrs by annexin-FITC and propidium iodide staining based flow cytometry analysis (reference value: 1.20%)", "format": "functional"}, "[8]": {"test_system": "MCF7", "test": "Induction of apoptosis in human MCF7 cells assessed as necrotic cells at 40 nM measured after 48 hrs by annexin-FITC and propidium iodide staining based flow cytometry analysis (reference value: 0.18%)", "format": "functional"}, "[9]": {"test_system": "MCF7", "test": "Induction of apoptosis in human MCF7 cells assessed as upregulation of p53 protein level by Western blot analysis", "format": "functional, cell-based", "conditions": "dose 10-40 nM"}, "[10]": {"test_system": "MCF7", "test": "Inhibition of colony formation in human MCF7 cells at 5 to 10 nM incubated for 48 hrs", "format": "functional, cell-based", "conditions": "dose 5-10 nM"}, "[11]": {"test_system": "HUVEC", "test": "Anti-angiogenesis activity in human HUVEC cells assessed as disruption of capillary tube formation at 30 nM incubated for 6 hrs by inverted microscopic analysis", "format": "functional, cell-based"}, "[12]": {"test_system": "MDA-MB-231", "test": "Antiproliferative activity against human MDA-MB-231 cells assessed as inhibition of cell growth measured after 48 hrs by MTT assay", "format": "functional, cell-based", "conditions": "MDA-MB-231, 48 h"}, "[13]": {"test_system": "HT-29", "test": "Antiproliferative activity against human HT-29 cells assessed as inhibition of cell growth measured after 48 hrs by MTT assay", "format": "functional, cell-based", "conditions": "HT-29, 48 h"}, "[14]": {"test_system": "MGC-803", "test": "Antiproliferative activity against human MGC-803 assessed as inhibition of cell growth measured after 48 hrs by MTT assay", "format": "functional, cell-based", "conditions": "MGC-803, 48 h"}, "[15]": {"test": "Antiproliferative activity against cisplatin resistant human A2780/CDDP cells assessed as inhibition of cell growth measured after 48 hrs by MTT assay", "format": "functional, cell-based"}, "[16]": {"test": "Resistance index, ratio of IC50 for antiproliferative activity against human CDDP-resistant A549 cell to IC50 for antiproliferative activity against human A549 cells", "format": "functional"}, "[17]": {"test": "Acute toxicity in ICR mouse assessed as animal death at 50 mg/kg, ip measured after upto 14 days", "format": "organism-based", "conditions": "in vivo, 336 h, time < 14 day"}, "[18]": {"test": "Acute toxicity in ICR mouse assessed as animal death at 200 mg/kg, ip measured after 3 to 14 days", "format": "organism-based", "conditions": "in vivo, time 3-14 day"}, "[19]": {"test": "Acute toxicity in ICR mouse assessed as survival rate at 50 mg/kg, ip measured after 14 days relative to control", "format": "organism-based", "conditions": "in vivo, time 14 day"}, "[20]": {"test": "Acute toxicity in ICR mouse assessed as survival rate at 150 mg/kg, ip measured after 14 days relative to control", "format": "organism-based", "conditions": "in vivo, time 14 day"}, "[21]": {"test": "Acute toxicity in ICR mouse assessed as survival rate at 200 mg/kg, ip measured after 14 days relative to control", "format": "organism-based", "conditions": "in vivo, time 14 day"}, "[22]": {"test_system": "MDA-MB-231", "test": "Antitumor activity against human MDA-MB-231 cells xenografted in BALB/c nude mouse model assessed as inhibition of tumor growth weight administered as IP dose measured after 14 days", "format": "functional", "conditions": "dose 7.5-15 mg/kg, time 14.0 day"}, "[23]": {"test": "Toxicity in Balb/C nude mouse assessed as abnormalities in heart at 7.5 to 15 mg/kg, ip measured after 14 days by H and E staining based analysis", "format": "organism-based", "conditions": "in vivo, 336 h, dose 7.5-15 mg/kg, time 14 day"}, "[24]": {"test": "Toxicity in Balb/C nude mouse assessed as abnormalities in lung at 7.5 to 15 mg/kg, ip measured after 14 days by H and E staining based analysis", "format": "organism-based", "conditions": "in vivo, 336 h, dose 7.5-15 mg/kg, time 14 day"}, "[25]": {"test": "Toxicity in Balb/C nude mouse xenografted with A549/Taxol assessed as effect on white blood cells count at 15 mg/kg, ip measured after 14 days by biochemical assay", "format": "organism-based, A549/TR", "conditions": "in vivo, 336 h, time 14 day"}, "[26]": {"test": "Half life in mouse at 3 mg/kg, iv measured upto 24 hrs by LC-MS/MS analysis", "format": "ADME, organism-based", "conditions": "in vivo"}, "[27]": {"test": "MRT (0 to t) in mouse at 3 mg/kg, iv measured upto 24 hrs by LC-MS/MS analysis", "format": "ADME, organism-based", "conditions": "in vivo"}, "[28]": {"test": "MRT (0 to infinity) in mouse at 3 mg/kg, iv measured upto 24 hrs by LC-MS/MS analysis", "format": "ADME, organism-based", "conditions": "in vivo"}, "[29]": {"test": "Tmax in mouse at 15 mg/kg, po measured upto 24 hrs by LC-MS/MS analysis", "format": "ADME, organism-based", "conditions": "in vivo"}, "[30]": {"test": "AUC (0 to t) in mouse at 15 mg/kg, po measured upto 24 hrs by LC-MS/MS analysis", "format": "ADME, organism-based", "conditions": "in vivo"}, "[31]": {"test": "MRT (0 to infinity) in mouse at 15 mg/kg, po measured upto 24 hrs by LC-MS/MS analysis", "format": "ADME, organism-based", "conditions": "in vivo"}, "[32]": {"test": "Oral bioavailability in mouse at 15 mg/kg measured upto 24 hrs by LC-MS/MS analysis", "format": "ADME, organism-based", "conditions": "in vivo"}, "[33]": {"test_system": "A2780/Taxol", "test": "cells", "conditions": "Homo sapiens, 48 h"}},
  "note": "Active and inactive are the calls of the source. No cut-off for these calls is given here.",
  "data": [
    {"smiles": "COc1cc(-n2cnc3ccc(-c4ccc(C)c(N)c4)nc32)cc(OC)c1OC", "values": [
      {"measurement": "Activity", "setting": "[1]", "value": "inactive"},
      {"measurement": "Activity", "setting": "[2]", "value": "inactive"},
      {"measurement": "inhibition", "setting": "[3]", "value": "Active"},
      {"measurement": "Activity", "setting": "[4]", "value": "Active"},
      {"measurement": "Activity", "setting": "[5]", "value": "Active"},
      {"measurement": "Activity", "setting": "[6]", "value": 31.28, "unit": "%"},
      {"measurement": "Activity", "setting": "[7]", "value": 32.55, "unit": "%"},
      {"measurement": "Activity", "setting": "[8]", "value": 0.36, "unit": "%"},
      {"measurement": "Activity", "setting": "[9]", "value": "Dose-Dependent Effect"},
      {"measurement": "inhibition", "setting": "[10]", "value": "Active"},
      {"measurement": "Activity", "setting": "[11]", "value": "Active"},
      {"measurement": "IC50", "setting": "[12]", "value": 20, "unit": "nM"},
      {"measurement": "IC50", "setting": "[13]", "value": 11, "unit": "nM"},
      {"measurement": "IC50", "setting": "[14]", "value": 0.5, "unit": "nM"},
      {"measurement": "IC50", "setting": "[15]", "value": 4.2, "unit": "nM"},
      {"measurement": "Ratio IC50", "setting": "[16]", "value": 1.81},
      {"measurement": "Activity", "setting": "[17]", "value": "Non-Toxic"},
      {"measurement": "Activity", "setting": "[18]", "value": "Non-Toxic"},
      {"measurement": "survival at 336 h", "setting": "[19]", "value": 100, "unit": "%"},
      {"measurement": "survival at 336 h", "setting": "[20]", "value": 50, "unit": "%"},
      {"measurement": "survival at 336 h", "setting": "[21]", "value": 40, "unit": "%"},
      {"measurement": "Activity", "setting": "[22]", "value": "Dose-Dependent Effect"},
      {"measurement": "Activity", "setting": "[23]", "value": "Non-Toxic"},
      {"measurement": "Activity", "setting": "[24]", "value": "Non-Toxic"},
      {"measurement": "Activity", "setting": "[25]", "value": "Non-Toxic"},
      {"measurement": "half-life", "setting": "[26]", "value": 63.6, "unit": "min"},
      {"measurement": "MRT last at 24 h", "setting": "[27]", "value": 29.4, "unit": "min"},
      {"measurement": "MRT inf", "setting": "[28]", "value": 31.2, "unit": "min"},
      {"measurement": "Tmax", "setting": "[29]", "value": 8.4, "unit": "min"},
      {"measurement": "AUC(0-t) at 24 h", "setting": "[30]", "value": 1240, "unit": "ng·h/mL"},
      {"measurement": "MRT inf", "setting": "[31]", "value": 148, "unit": "min"},
      {"measurement": "bioavailability", "setting": "[32]", "value": 40, "unit": "%"},
      {"measurement": "IC50", "setting": "[33]", "value": 4.8, "unit": "nM"}
    ]}
  ]
}
